Laboratory results reported in EP3431468B1, “USE OF ADIPONECTIN RECEPTOR AGONISTS IN TREATING DEPRESSION, ANXIETY AND NEUROINFLAMMATION” (CENTRE NATIONAL DE LA RECHERCHE SCIENTIFIQUE, priority 2017, dated 2019).

Legend:
Type in all cases: in vivo
Details in all cases: chronic 1mg/kg ip daily
[1] = tested on: corticosterone-treated mice; test: Novelty Suppressed Feeding (NSF), chronic administration
Description: (§1) Three well-established mouse models of depression-like behavior have been used in the present study namely i- the long-term corticosterone treatment in the drinking water (David, Samuels et al. 2009), ii- the peripheral administration of LPS (O'Connor, Lawson et al. 2009) iii- the ApN^-/- mice (Liu, Guo et al. 2012). For chronic AdipoRon treatment, the experimental protocol was as followed: • i- Five weeks old male mice (five/cage) received corticosterone (35mg/L dissolved in tap water containing 4 g/L CD) or vehicle alone ad libitum for during 7 consecutive weeks (David, Samuels et al. 2009). Corticosterone and vehicle solutions were changed every 3 days to prevent possible degradation. […]
(§2) All behavioral testing were conducted during the light phase (between 09:00 and 14:00 am) in compliance with the Institutional Animal Care and Use Committee of the University of Nice-Sophia Antipolis (permission number 010344.01 from the French "Ministère de l'Enseignement Supérieur et de la Recherche" granted to Dr. Joëlle Chabry). • Forced Swimming test (FST) - Mice were placed an inescapable transparent tank (20cm diameter, 30cm deep) filled with water (23°C ± 0.5) for six minutes as previously described by Porsolt et al. (1977). […] To initiate testing, mice were placed into the light side and activity was recorded for 5 minutes. […]

[2] = tested on: corticosterone-treated mice; test: Light & Dark test (L&D), chronic administration
Description: as §1, §2

[3] = tested on: corticosterone-treated mice; test: Sucrose preference test, chronic administration
Description: as §1, §2

[4] = vehicle-treated mice (no corticosterone)

SMILES: O=C(COc1ccc(C(=O)c2ccccc2)cc1)NC1CCN(Cc2ccccc2)CC1 [AdipoRon, 2-(4-Benzoylphenoxy)-N-[1-(phenylmethyl)-4-piperidinyl]-acetamide]
- latency to eat in the NSF ([1]; corticosterone-treated mice): reversed the effect of corticosterone
- latency to eat in the NSF [1, 4]: no significant effect
- time spent in the aversive light chamber (anxiety behavior) ([2]; corticosterone-treated mice): reversed the anxiety phenotype
- time spent in the aversive light chamber (anxiety behavior) [2, 4]: without effect
- sucrose preference (anhedonia) ([3]; corticosterone-treated mice): reversed the effect of corticosterone
- sucrose preference (anhedonia) [3, 4]: no significant effect
